pIC50, pKi: −log10 of the molar value. Where “and” joins values, the source holds several entries; their conditions need not be identical. Identical values can stand only once. Entries after “also recorded” stand apart in the source; their conditions may differ. Like-named read-outs stand apart in the source and are kept apart here.
Assays:
Assay in all cases: biochemical
[1] = molecular target: T1, aromatase (Homo sapiens, UniProt P11511); assay type: biochemical, human (placenta microsomal fraction)
T1 construct: microsomal fraction isolated from human placenta; from tissue; host or cells: human placenta, microsomal fraction
T1 sequence (P11511 1-503): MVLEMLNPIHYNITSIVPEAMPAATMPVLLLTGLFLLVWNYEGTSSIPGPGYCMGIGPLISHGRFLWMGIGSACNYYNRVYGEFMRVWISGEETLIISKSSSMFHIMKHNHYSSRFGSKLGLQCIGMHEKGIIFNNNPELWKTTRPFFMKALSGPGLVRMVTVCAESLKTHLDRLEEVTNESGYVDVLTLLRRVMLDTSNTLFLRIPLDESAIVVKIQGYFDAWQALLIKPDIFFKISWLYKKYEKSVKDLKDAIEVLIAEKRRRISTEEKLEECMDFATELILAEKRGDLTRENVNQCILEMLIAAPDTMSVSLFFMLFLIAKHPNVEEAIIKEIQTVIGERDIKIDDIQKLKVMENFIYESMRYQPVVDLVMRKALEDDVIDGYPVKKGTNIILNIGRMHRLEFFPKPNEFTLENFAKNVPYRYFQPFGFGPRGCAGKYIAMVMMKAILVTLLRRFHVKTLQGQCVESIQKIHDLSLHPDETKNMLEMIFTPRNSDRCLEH
Experimental: Assay buffer contains 100 mM KCl, 10 mM KH2 PO4, 10 mM dithiothreitol and 1 mM EDTA at pH 8.0. […] These preparations are mixed using a vortex mixer and incubated for 30 minutes at 37° C. with a 95% O2 :5% CO2 gas phase in a Dubinoff shaking incubator.
The enzymatic reaction is terminated by the addition of 10 ml of CHCl3. After vortexing for 20 sec., aqueous/organic emulsions are dispersed and phase separation achieved following centrifugation at 600×g for 10 min. Duplicate 500 ul samples of the upper aqueous phase of each incubation sample are added to 10×75 mm culture tubes. To these tubes, 500 ul of cold 0.25% dextran-coated charcoal suspension is added, vortexed, incubated for 15 min. at 4° C., then centrifuged at 2600×g in a refrigerated centrifuge (4° C.). The supernatant fraction is decanted into a 20 ml scintillation vial and 15 ml of aqueous scintillation cocktail is added. The radioactivity of ^3 H2 O resulting from liberated 1 and 2 tritium atoms during the enzymatic reaction is determined by counting for 10 min. in a liquid scintillation counter. This assay procedure is adapted from the procedures of Reed et al, J. Biol. Chem., 251, 1625 (1976), and Thompson et al, J. Biol. Chem., 249, 5364 and 5374 (1974).

[2] = molecular target: T1, aromatase; assay type: human (placenta microsomal fraction); conditions: for pKi: time-dependent assay, Table 2, read-out: Apparent Ki
Experimental: (§1) In the time-dependent assay, an amount of the enzyme inhibitor in 100 ul of the assay buffer described above which will provide assay concentrations which are approximately one and ten times the IC50 values are added to 35 ml centrifuge tubes containing 600 ul of the NADPH generating system described above. […] These preparations are mixed using a vortex mixer and incubated for 0, 10, 20 or 40 minutes at 25° C. […] Following vortexing, the enzyme incubation is continued for 10 minutes before being terminated by the addition of chloroform. The amount of radioactivity in the aqueous fraction is determined by scintillation procedures. […] Therefore, the percent enzyme inhibition is expressed as a percentage of the 100 percent enzyme activity value.
Compounds which show time-dependent inhibition are then assayed to establish the inhibition constant, Ki, which is the apparent dissociation constant for the enzyme-inhibitor complex. This determination requires measurements at initial velocities of enzyme reaction. […] The enzyme half-life (t1/2) at these different inhibitor concentrations ([In]) is used to determine the Ki by the linear regression equation of the t1/2 vs. 1/[In]. The Ki is equivalent to the inhibitor concentration when t1/2 is equal to zero.

[3] = molecular target: T1, aromatase; assay type: human (placenta microsomal fraction); conditions: for inhibition at 0.1 µM: inhibitor 0.1 uM; for inhibition at 0.1 µM / inhibition at 1 µM / inhibition at 0.25 µM / inhibition at 2.5 µM: read-out: Percent Inhibition; for inhibition at 1 µM: inhibitor 1.0 uM; for inhibition at 0.25 µM: inhibitor 0.25 uM; for inhibition at 2.5 µM: inhibitor 2.5 uM
Experimental: In this assay, the inhibitor is preincubated with the enzyme prior to assaying for enzyme activity in the presence of high substrate levels.
as §1

Work on `C[C@]12C=CC(=O)C=C1C=C[C@@H]1[C@@H]2CC[C@]2(C)C(=O)CC[C@@H]12` [Androsta-1,4,6-triene-3,17-dione] yielded a pIC50 [1] of 7.00, a pKi [2] of 6.96 and an inhibition at 0.1 µM ([3]; preincubation 0 minutes) of 20.5%. For the same compound, the inhibition at 0.1 µM ([3]; preincubation 20 minutes) was 45.5%, the inhibition at 0.1 µM ([3]; preincubation 40 minutes) was 54.8% and the inhibition at 1 µM ([3]; preincubation 0 minutes) was 88.8%. For the same compound, the inhibition at 1 µM ([3]; preincubation 20 minutes) was 92.8% and the inhibition at 1 µM ([3]; preincubation 40 minutes) was 95.2%.

`C=C=C[C@]12CCC(=O)C=C1CC[C@@H]1[C@@H]2CC[C@]2(C)C(=O)CC[C@@H]12` [10-(1,2-propadienyl)estr-4-ene-3,17-dione] was tested, and the “Enzyme affinity compared with other known inhibitors” value [1] was “greater enzyme affinity than other known inhibitors”, the “Affinity for the enzyme site relative to natural substrate testosterone (times greater)” value [2] was “three times greater” and the “Binding to the enzyme” value [2] was “irreversibly bound to the enzyme”. For the same compound, the “Factor by which enzyme affinity exceeds that of 1-dehydrotestololactone” value [2] was 58.1, the “Factor by which enzyme affinity exceeds that of aminoglutethimide” value [2] was 1,491.2 and the “Factor by which enzyme affinity exceeds that of androsta-1,4,6-triene-3,17-dione” value [2] was 8.1. The “Activity compared with known therapeutic agents / known aromatase inhibitors” value [3] was “superior activity to known therapeutic agents; also recorded: superior to known aromatase inhibitors”, the “Time-dependent inhibition of aromatase” value [3] was “significant time-dependent inhibition of aromatase” and the “Percent Inhibition” value ([3]; 1 µM) was 50.2 and 69.2 and 84.0.

In the case of `C[C@]12C=CC(=O)C=C1CC[C@@H]1[C@@H]2CC[C@]2(C)OC(=O)CC[C@@H]12` [1-dehydrotestololactone, 1,2,3,4,4a,4b,7,9,10,10a-Decahydra-2-hydroxy-2,4b-dimethyl-7oxo-l-phenanthrene-propionic acid O-lactone], the pIC50 [1] was 5.60, the pKi [2] was 5.10 and the inhibition at 0.25 µM ([3]; preincubation 0 minutes) was 0%. The inhibition at 0.25 µM ([3]; preincubation 20 minutes) was 3.6%, the inhibition at 0.25 µM ([3]; preincubation 40 minutes) was 36.1% and the inhibition at 2.5 µM ([3]; preincubation 0 minutes) was 24.7%. It also gave an inhibition at 2.5 µM ([3]; preincubation 20 minutes) of 82.7% and an inhibition at 2.5 µM ([3]; preincubation 40 minutes) of 96.9%.

From US4289762A, “10-(1,2-Propadienyl) steroids as irreversible aromatase inhibitors” (Merrell Dow Pharmaceuticals Inc., priority 1980, dated 1981)
